Assay: xn = mol fraction of the nth substance listed
Conditions: Liquid, Vibrating tube method

CCCCn1cc[n+](C)c1.F[B-](F)(F)F [1-butyl-3-methylimidazolium tetrafluoroborate] + CO
Conditions | mass density [kg/m3]
298.15 K, 210 kPa, x1 = 0.9102 | 1203.93
298.15 K, 240 kPa, x1 = 0.2626 | 1065.61
298.15 K, 250 kPa, x1 = 0.4988 | 1144.91
298.15 K, 300 kPa, x1 = 0.1302 | 975.12
298.15 K, 310 kPa, x1 = 0.7501 | 1186.96
298.15 K, 380 kPa, x1 = 0.0087 | 804.76
298.15 K, 400 kPa, x1 = 0.0433 | 867.22
298.15 K, 4380 kPa, x1 = 0.0087 | 808.51
298.15 K, 5040 kPa, x1 = 0.9102 | 1206.16
298.15 K, 5080 kPa, x1 = 0.7501 | 1189.2
298.15 K, 5210 kPa, x1 = 0.2626 | 1068.88
298.15 K, 5270 kPa, x1 = 0.0433 | 871.22
298.15 K, 5310 kPa, x1 = 0.4988 | 1147.71
298.15 K, 5890 kPa, x1 = 0.1302 | 979.15
298.15 K, 10030 kPa, x1 = 0.7501 | 1191.5
298.15 K, 10030 kPa, x1 = 0.9102 | 1208.41
298.15 K, 10050 kPa, x1 = 0.4988 | 1150.25
298.15 K, 10080 kPa, x1 = 0.2626 | 1071.94
298.15 K, 10260 kPa, x1 = 0.0433 | 875.17
298.15 K, 10840 kPa, x1 = 0.1302 | 982.54
298.15 K, 10910 kPa, x1 = 0.0087 | 814.38
298.15 K, 15190 kPa, x1 = 0.0433 | 878.92
298.15 K, 15310 kPa, x1 = 0.9102 | 1210.74
298.15 K, 15330 kPa, x1 = 0.0087 | 818.18
298.15 K, 15380 kPa, x1 = 0.2626 | 1075.12
298.15 K, 15420 kPa, x1 = 0.7501 | 1193.96
298.15 K, 15620 kPa, x1 = 0.4988 | 1153.13
298.15 K, 15680 kPa, x1 = 0.1302 | 985.71
298.15 K, 19940 kPa, x1 = 0.0087 | 821.99
298.15 K, 20020 kPa, x1 = 0.0433 | 882.44
298.15 K, 20070 kPa, x1 = 0.9102 | 1212.8
298.15 K, 20140 kPa, x1 = 0.4988 | 1155.39
298.15 K, 20750 kPa, x1 = 0.2626 | 1078.17
298.15 K, 20890 kPa, x1 = 0.7501 | 1196.42
298.15 K, 20920 kPa, x1 = 0.1302 | 988.97
298.15 K, 25090 kPa, x1 = 0.2626 | 1080.52
298.15 K, 25120 kPa, x1 = 0.1302 | 991.46
298.15 K, 25410 kPa, x1 = 0.4988 | 1157.92
298.15 K, 25410 kPa, x1 = 0.9102 | 1215.05
298.15 K, 25420 kPa, x1 = 0.0433 | 886.2
298.15 K, 25680 kPa, x1 = 0.7501 | 1198.54
298.15 K, 25770 kPa, x1 = 0.0087 | 826.59
298.15 K, 30080 kPa, x1 = 0.0433 | 889.29
298.15 K, 30080 kPa, x1 = 0.7501 | 1200.46
298.15 K, 30090 kPa, x1 = 0.9102 | 1216.97
298.15 K, 30120 kPa, x1 = 0.2626 | 1083.1
298.15 K, 30410 kPa, x1 = 0.4988 | 1160.24
298.15 K, 30520 kPa, x1 = 0.0087 | 830.16
298.15 K, 31070 kPa, x1 = 0.1302 | 994.78
298.15 K, 35070 kPa, x1 = 0.2626 | 1085.49
298.15 K, 35290 kPa, x1 = 0.7501 | 1202.69
298.15 K, 35420 kPa, x1 = 0.0433 | 892.67
298.15 K, 35560 kPa, x1 = 0.1302 | 997.14
298.15 K, 35740 kPa, x1 = 0.0087 | 833.9
298.15 K, 35740 kPa, x1 = 0.4988 | 1162.61
298.15 K, 39560 kPa, x1 = 0.0433 | 895.16
298.15 K, 39780 kPa, x1 = 0.4988 | 1164.34
298.15 K, 39880 kPa, x1 = 0.0087 | 836.72
298.15 K, 39910 kPa, x1 = 0.7501 | 1204.65
298.15 K, 39910 kPa, x1 = 0.9102 | 1220.87
298.15 K, 39930 kPa, x1 = 0.9102 | 1220.88
298.15 K, 39960 kPa, x1 = 0.2626 | 1087.71
298.15 K, 40120 kPa, x1 = 0.1302 | 999.4
323.15 K, 230 kPa, x1 = 0.9102 | 1185.2
323.15 K, 240 kPa, x1 = 0.0087 | 781
323.15 K, 240 kPa, x1 = 0.7501 | 1168.14
323.15 K, 260 kPa, x1 = 0.1302 | 952.36
323.15 K, 440 kPa, x1 = 0.0433 | 844.94
323.15 K, 670 kPa, x1 = 0.2626 | 1046.2
323.15 K, 780 kPa, x1 = 0.4988 | 1126.41
323.15 K, 5040 kPa, x1 = 0.9102 | 1187.61
323.15 K, 5070 kPa, x1 = 0.7501 | 1170.7
323.15 K, 5310 kPa, x1 = 0.4988 | 1128.87
323.15 K, 5320 kPa, x1 = 0.2626 | 1049.53
323.15 K, 5430 kPa, x1 = 0.0433 | 849.82
323.15 K, 5440 kPa, x1 = 0.0087 | 786.6
323.15 K, 6310 kPa, x1 = 0.1302 | 957.29
323.15 K, 10030 kPa, x1 = 0.9102 | 1190.07
323.15 K, 10080 kPa, x1 = 0.2626 | 1052.82
323.15 K, 10090 kPa, x1 = 0.4988 | 1131.48
323.15 K, 10140 kPa, x1 = 0.1302 | 960.32
323.15 K, 10160 kPa, x1 = 0.0433 | 854.23
323.15 K, 10340 kPa, x1 = 0.7501 | 1173.44
323.15 K, 11020 kPa, x1 = 0.0087 | 792.32
323.15 K, 15060 kPa, x1 = 0.2626 | 1056.14
323.15 K, 15120 kPa, x1 = 0.1302 | 964.14
323.15 K, 15250 kPa, x1 = 0.0433 | 858.75
323.15 K, 15420 kPa, x1 = 0.4988 | 1134.4
323.15 K, 15430 kPa, x1 = 0.7501 | 1176.04
323.15 K, 15440 kPa, x1 = 0.0087 | 796.64
323.15 K, 15470 kPa, x1 = 0.9102 | 1192.72
323.15 K, 20070 kPa, x1 = 0.7501 | 1178.36
323.15 K, 20090 kPa, x1 = 0.9102 | 1194.92
323.15 K, 20110 kPa, x1 = 0.1302 | 967.85
323.15 K, 20340 kPa, x1 = 0.0433 | 863.04
323.15 K, 20430 kPa, x1 = 0.2626 | 1059.59
323.15 K, 20640 kPa, x1 = 0.0087 | 801.47
323.15 K, 20740 kPa, x1 = 0.4988 | 1137.33
323.15 K, 25030 kPa, x1 = 0.4988 | 1139.71
323.15 K, 25090 kPa, x1 = 0.7501 | 1180.84
323.15 K, 25120 kPa, x1 = 0.1302 | 971.44
323.15 K, 25310 kPa, x1 = 0.9102 | 1197.38
323.15 K, 25630 kPa, x1 = 0.0433 | 867.24
323.15 K, 25660 kPa, x1 = 0.0087 | 805.89
323.15 K, 25810 kPa, x1 = 0.2626 | 1062.91
323.15 K, 29940 kPa, x1 = 0.0433 | 870.48
323.15 K, 30010 kPa, x1 = 0.4988 | 1142.47
323.15 K, 30090 kPa, x1 = 0.2626 | 1065.44
323.15 K, 30410 kPa, x1 = 0.7501 | 1183.41
323.15 K, 30440 kPa, x1 = 0.1302 | 975.12
323.15 K, 30450 kPa, x1 = 0.9102 | 1199.76
323.15 K, 30560 kPa, x1 = 0.0087 | 809.96
323.15 K, 35210 kPa, x1 = 0.0433 | 874.21
323.15 K, 35240 kPa, x1 = 0.2626 | 1068.37
323.15 K, 35240 kPa, x1 = 0.4988 | 1145.39
323.15 K, 35240 kPa, x1 = 0.7501 | 1185.69
323.15 K, 35450 kPa, x1 = 0.0087 | 813.8
323.15 K, 35620 kPa, x1 = 0.1302 | 978.57
323.15 K, 35860 kPa, x1 = 0.9102 | 1202.22
323.15 K, 39410 kPa, x1 = 0.0087 | 816.73
323.15 K, 39620 kPa, x1 = 0.1302 | 981.14
323.15 K, 39860 kPa, x1 = 0.9102 | 1204.01
323.15 K, 39890 kPa, x1 = 0.0433 | 877.31
323.15 K, 39890 kPa, x1 = 0.7501 | 1187.86
323.15 K, 39970 kPa, x1 = 0.2626 | 1070.95
323.15 K, 39970 kPa, x1 = 0.4988 | 1148.04
348.15 K, 340 kPa, x1 = 0.1302 | 931.46
348.15 K, 420 kPa, x1 = 0.9102 | 1166.95
348.15 K, 610 kPa, x1 = 0.4988 | 1107.55
348.15 K, 640 kPa, x1 = 0.0087 | 757.2
348.15 K, 710 kPa, x1 = 0.0433 | 821.46
348.15 K, 860 kPa, x1 = 0.2626 | 1026.35
348.15 K, 870 kPa, x1 = 0.7501 | 1150.03
348.15 K, 5060 kPa, x1 = 0.2626 | 1029.49
348.15 K, 5070 kPa, x1 = 0.7501 | 1152.55
348.15 K, 5310 kPa, x1 = 0.9102 | 1169.75
348.15 K, 5370 kPa, x1 = 0.0433 | 826.71
348.15 K, 5410 kPa, x1 = 0.4988 | 1110.43
348.15 K, 5710 kPa, x1 = 0.1302 | 936.68
348.15 K, 6020 kPa, x1 = 0.0087 | 763.72
348.15 K, 10060 kPa, x1 = 0.4988 | 1113.45
348.15 K, 10060 kPa, x1 = 0.7501 | 1155.48
348.15 K, 10070 kPa, x1 = 0.9102 | 1172.42
348.15 K, 10410 kPa, x1 = 0.2626 | 1033.58
348.15 K, 10670 kPa, x1 = 0.0433 | 832.4
348.15 K, 10820 kPa, x1 = 0.1302 | 941.38
348.15 K, 10960 kPa, x1 = 0.0087 | 769.43
348.15 K, 15090 kPa, x1 = 0.2626 | 1037.07
348.15 K, 15120 kPa, x1 = 0.0087 | 774.02
348.15 K, 15120 kPa, x1 = 0.4988 | 1116.66
348.15 K, 15140 kPa, x1 = 0.1302 | 945.16
348.15 K, 15150 kPa, x1 = 0.0433 | 836.97
348.15 K, 15420 kPa, x1 = 0.9102 | 1175.35
348.15 K, 15870 kPa, x1 = 0.7501 | 1158.8
348.15 K, 20070 kPa, x1 = 0.4988 | 1119.71
348.15 K, 20080 kPa, x1 = 0.7501 | 1161.16
348.15 K, 20110 kPa, x1 = 0.0433 | 841.77

Reference: the NIST ThermoML archive (doi:10.1016/j.jct.2008.05.005)
